SMILES | melting point [°C]
CC(C)=NOCCCCn1cnc2c(N)nc3c(c21)CCCC3 | 151 to 153
CCOC(=O)c1cn(C)c2cc(OC)ccc2c1=O | 198 to 200
O=C(Nc1ccccc1)N1C[C@@H](P(c2ccccc2)c2ccccc2)[C@H](P(c2ccccc2)c2ccccc2)C1 | 165 to 167
NC(=O)c1c(-c2cnccn2)ssc1=S | 267
CC(=O)c1ccc(C(C)ON2C(C)(C)CCCC2(C)C)cc1 (stereo unspecified) | 61.5 to 63
CC(=O)OCC(C)C1CCC2C3CC=C4CC(O)CCC4(C)C3CCC12C (stereo unspecified) | 143
Cc1ccc(N2CCN(CCCCl)CC2)cc1 | 34 to 36
Cc1ccc2c(c1)oc1c(C(=O)NC3CCCCC3)nn(-c3ccc(Cl)cc3Cl)c12 | 140 to 142
CCOc1sc(C(N)=O)c2c1-c1c(cnn1C)CC2 | 200 to 202
N#CC(=C1C=CC(=NO[Si](c2ccccc2)(c2ccccc2)c2ccccc2)C=C1)c1ccccc1 | 161 to 165
CCOC(=O)C(NC(=O)CNC(=O)CCl)C(=O)OCC | 104 to 105
COc1c(CC#N)c2c(c3c1OC(C)(C)C3)C(c1cccc(C(=O)NC(C)(C)C(N)=O)c1)=NC(C)(C)C2 | 217 to 219
CC(C)(C)c1cc(C2NC(=O)NC2c2ccccc2)cc(C(C)(C)C)c1O (stereo unspecified) | > 300
CCOC(=O)c1c(C)nc(Cl)c([N+](=O)[O-])c1NCCCN(C)C | 20
CC(=O)c1ccc2c(c1)C(c1ccccc1F)=NC(C)(C)C(=O)N2C | 68
Cc1cc2c(cc1C)N(C)c1cscc1C(=O)N2CCN(C)C | 119 to 120
COC(=O)c1cccc(C)c1/C=C/Cc1c(OC)c(C)c2c(c1OC(C)=O)C(=O)OC2 | 104 to 111
COC1=C(OC)C(=O)c2c(N)cccc2C1=O | 116 to 117

SMILES | melting point [°C]
CCCCCCCCCCCCSCC(CO)NC(=O)CCCCCCCCCC (stereo unspecified) | 64 to 67
Cc1c(N)cc(C(C)(C)C)cc1N | 97.3
Cc1cc(SC(C)C)c(NC(=O)CCCCCSc2nc3ccccc3s2)c(SC(C)C)n1 | 84 to 86
CCCCCCCCCCCCCCCCOCC(CO)Oc1cc(-c2ccccc2)on1 (stereo unspecified) | 45.5 to 46.5
COc1ccc(S(=O)(=O)N(CC(=O)O)CC(=O)O)cc1 | 177 to 178
O=C(O)c1[nH]c(=O)n2c1CN=C(c1ccccc1Cl)c1cc(Cl)ccc1-2 | 236 to 238
CCOC(=O)Nc1nc(-c2ccccc2)c(-c2nc3ccccc3c(=O)n2-c2ccc(OC)cc2)s1 | 256 to 257
CC(C)(C)OC(=O)N1CCC(c2noc3c(C(F)(F)F)cccc23)CC1 | 111 to 113
CSC1=CC2=CN(S)NN2C(C)=N1 | 256 to 258
CC#CCOc1ccc(S(=O)(=O)NC(C(=O)NO)c2ccc(OCCN3CCCC3)cc2)cc1 (stereo unspecified) | 70
CCOC(=O)C1=C(C)NC(CF)=C(C(=O)OCC)C1c1cccc([N+](=O)[O-])c1 (stereo unspecified) | 139 to 141
COc1cccc2c1C(=O)c1c(OC)cc(-c3nnn[nH]3)cc1C2=O | 262 to 264
CCOC(=O)C1=C(C)NC(N)=C(C(=O)OCC)C1c1cccc(Cl)c1 (stereo unspecified) | 157 to 159
FC(F)(F)c1ccc(-c2nc(Oc3csc(C(F)(F)F)c3)cc(Oc3csc(C(F)(F)F)c3)n2)cc1 | 93 to 95
CC(=O)N1C[C@H]2CCC[C@H]2OC1=O (relative stereo) | 80 to 83
CCOC(=O)Cc1sc(C(C)(C)c2c(Cl)cc(-n3ncc(=O)[nH]c3=O)cc2Cl)nc1-c1ccccc1 | 148
CCCCCCCCCCCCCCCCCNC(=O)OC1CCCOC1COCC(O)CCCCCCO (stereo unspecified) | 67 to 68

More lines, now with the values ahead:

melting point [°C] | SMILES
227 to 229 | COc1ccc(-c2nc3cnccc3[nH]2)cc1S(C)=O (stereo unspecified)
193 to 195 | CSCCn1c(C)nc2c(N)nc3ccccc3c21
86 to 89 | CCOC(=NC(=O)Nc1ccc(OC(F)(F)F)cc1)c1ccccc1Cl
165 to 169 | Cc1ccc(CSCCCCCOc2ccc(C3=C(c4ccccc4)CCCc4cc(O)ccc43)cc2)cc1
82.3 to 91.5 | CS(=O)(=O)c1ncc2cc(Oc3ccccc3F)c(=O)n(-c3ccc(F)cc3)c2n1
103 to 104 | Cc1cc(C)c(C(CO)c2ccccc2)c(O)c1C (stereo unspecified)
111 to 112 | OCc1cc2cc(Br)ccc2[nH]1
180 to 182 | Cc1ccc(S(=O)(=O)N(C)c2ccc(Cl)cc2C(N)=S)cc1
183 to 185 | COc1ccc(C2=NNC(=O)[C@H]3CC=CC[C@@H]23)cc1Cl (relative stereo)
121 to 122 | Cc1ccccc1CC1CNC(=O)O1 (stereo unspecified)
58 to 62 | CC(=O)OCCC1(C)CCc2c(C)c(OCc3ccccc3)c(C)c(C)c2O1 (stereo unspecified)
144 to 145 | COc1cccc(CC(=O)O)c1OCCCCc1cn(-c2ccc(C(F)(F)F)cn2)nc1C(C)C
166 | CCOC(=O)N1CCN(C2=Nc3ccccc3Nc3ccsc32)CC1
142 | CCN(C(=O)C(=O)O)c1ccc2c(C)cc(=O)oc2c1
215 to 217 | COc1cc(Nc2c(C#N)cnc3cc(-c4ccc(CCN5CCOCC5)cc4)c(OC)cc23)c(Cl)cc1Cl
64 | COc1nsc(S(=O)(=O)c2ccccc2)c1C#N
90 to 91 | O=C(Cc1ccncc1)c1ccc(F)cc1
112 | CCCCc1ccc2ncn(Cc3ccc(-c4ccccc4-c4nnnn4COC)cc3)c(=O)c2c1

melting point [°C] | SMILES
199 to 201 | COc1cc(Nc2nc3cccc(-c4cccc(Cl)c4)c3o2)cc(OC)c1OC
172 to 174 | ClCc1ccc2c(c1)Cc1cccnc1O2
188 to 189 | Nc1cc(-c2ccoc2)ccc1Nc1cccc(-n2ccnc2)c1
142 | Cc1cn(C2CC(O[Si](c3ccccc3)(c3ccccc3)C(C)(C)C)C(CI)O2)c(=O)[nH]c1=O (stereo unspecified)
173 | COc1cc(CN2C(=N)c3cc(-c4ccc(F)cc4F)ccc3S2(=O)=O)ccn1
114 to 115 | CCOP(=O)(Cc1ccc(NC(=O)CCc2c(C)noc2-c2ccccc2)cc1)OCC
95 to 100 | CCOc1ccccc1N1CCN(Cc2nc3ccccc3[nH]2)CC1
311 to 313 | O=C1Nc2ccc(Cl)nc2Oc2ccccc21
232 to 233 | N#CCOc1cc(O)ccc1-c1nc2nccnc2[nH]1
321 to 323 | CS(=O)c1ccccc1-c1cc2[nH]c3ccc(O)cc3c2c2c1C(=O)NC2=O (stereo unspecified)
69 to 71 | O=C(c1ccc(Cl)cc1)C1(Oc2ccc(Cl)cc2)CC1
168 to 170 | O=C(c1cccs1)c1cccc(O)c1C(=O)O
50 to 52 | O=C1NC(=O)C(N(Cc2ccc(Br)cc2)c2ccc(CCNCC(O)COc3ccc(OCc4ccccc4)cc3)cc2)S1 (stereo unspecified)
102 to 103 | CCCOc1cccc(CO)c1-c1ccc(OC)cc1O
242 to 245 | Cc1ccc(S(=O)(=O)Nc2nc(C)c(C(=O)NCc3ccccc3)s2)cc1
> 250 | Cc1nc(Nc2ccc(Cl)cc2)sc1C(=O)O
145 to 146 | CC(C)(Oc1ccc(CCNC(=O)C=Cc2ccccc2Cl)cc1)C(=O)O
128 to 130 | COc1ccc(N2CC(CCN3CCC(O)(c4ccc5c(c4)OCO5)CC3)OC2=O)cc1 (stereo unspecified)

— a melting point compilation (Tetko et al.; mined from patent text by program, amines drawn as free bases though some values may be those of a salt)
